Experiments:
IL-4 = IL-4 sandwich ELISA of hippocampus, correlation with MWM; type: in vivo, mouse; settings: APP23 mice; day 18; P=0.096 (HX630), P=0.087 (Am80/HX630)
rat primary microglia = assay: Clearance of 125I-labeled oligomeric Aβ1-42 by rat primary microglia; type: cell-based; settings: 5 μM each 48 h, then 6 h with 125I-o-Aβ1-42 1 μg/ml, vs vehicle-treated cells
Excerpt: Primary microglia (type 1) were harvested from primary mixed glial cell cultures prepared from neonatal Wistar rat pups, as previously reported. Mouse microglial cell line MG5 and mouse glial cell line A1 were maintained as previously described. Mouse neuroblastoma cell line N1E-115 and Neuro 2a (American Type Culture Collection, Manassas, Va., USA) were maintained in Dulbecco's modified Eagle's medium (DMEM) supplemented with 10% fetal bovine serum (FBS), 20 U/ml penicillin (Invitrogen, Gaithersburg, Md., USA), and 20 μg/ml streptomycin (Invitrogen). Primary rat microglia were treated with Am80 (5 μM) and/or HX630 (5 μM) in the presence and absence of GW9662 (10 μM) for 48 h in Eagle's MEM supplemented with 10% FBS and 0.2% glucose. MG5 cells and A1 cells were treated with Am80 (5 μM) and/or HX630 (5 μM) for 48 h in DMEM containing 10% FBS. N1E-115 cells were treated with Am80 (5 μM) and/or HX630 (5 μM) for 5 days in DMEM containing 2% FBS.
^125I-Labeled oligomeric Aβ1-42 (o-Aβ1-42) was prepared as described. Cells were cultured in 24-well plates for 48 h in Eagle's MEM supplemented with 10% FBS in the presence or absence of Am80 (5 μM) and HX630 (5 μM). After the 48-h treatment, the cells were washed twice with labeling medium (DMEM containing 3% BSA) and then incubated with ^125I-labeled o-Aβ1-42 for 6 h at 37° C. Following the 6-h incubation, medium was removed from each well, and soluble radioactivity in TCA (degraded and extracellularly released peptide fragments) was determined as an index of Aβ degradation in the medium as described previously. The Aβ degradation activity may thus include both receptor-mediated phagocytic activity and extracellular protease-mediated degradation. Cells were washed three times with PBS, then lysed with 0.4 ml of 0.1 M NaOH for 30 min at 37° C., and cell-associated (including cell-incorporated) radioactivity and cell proteins were determined with an autogamma counter and the BCA Protein Assay Reagent (Pierce), respectively. We could not determine the activity of IDE-dependent degradation in this medium, because the incubation medium was replaced with labeling medium prior to incubation with ^[…].

Ide mRNA = assay: Quantitative RT-PCR of Ide mRNA in brains of APP23 mice; type: in vivo, mouse; settings: day 18, vs vehicle, Am80/HX630 P<0.05, HX630 P=0.062 (not significant)
Experimental: APP23 mice begin forming amyloid deposits when they are 6 months old, but memory deficits in the MWM test appear quite early (before 3 months of age). Here, we used 8.5-month-old male APP23 mice and their WT littermates (C57BL/6J). We used stratified random sampling to divide mice (four to six per cage) into four groups to equalize the mean body weight of the study groups: mice given 0.5 mg/kg/d Am80, those given 5 mg/kg/d HX630, those given the mixture of 0.5 mg/kg/d Am80 and 5 mg/kg/d HX630, and those given the vehicle. Am80 and HX630 were suspended in 0.5% (w/v) carboxymethylcellulose solution and were orally administered to mice at 0.5 mg/kg (Am80) or 5 mg/kg (HX630) for 17 consecutive days (once daily at 18:00). Control animals received the same volume of 0.5% (w/v) carboxymethylcellulose solution orally, without the other compounds. We set the 0.5 mg/kg/d dose for Am80 on the basis that this had been found effective in other in vivo studies, such as those by Kawahara et al. and Ishido and Shudo [37]. […]
Total RNA from the cerebral hemispheres, hippocampus, or MG5 cells was prepared by guanidinium thiocyanate-phenol-chloroform extraction. […] Quantitative real-time PCRs were carried out by using the LightCycler 1.5 system (Roche, Mannheim, Germany) with the FastStart DNA Master SYBR Green I LightCycler kit (Roche). […]

SMILES: CN1c2ccccc2N=C(c2ccc(C(=O)O)cc2)c2cc3c(cc21)C(C)(C)CCC3(C)C [HX630, 4-[5H-2,3-(2,5dimethyl-2,5-hexano)-5-methyldibenzo[b,e]-diazepin-11-yl]benzoic acid]
- hippocampal IL-4 levels (IL-4): the increase was statistically insignificant
- degradation activity towards 125I-labeled oligomeric Aβ1-42 (rat primary microglia): increased
- Ide mRNA level in brain (Ide mRNA): slight increase

Reference: patent publication US9861640B2, “Medicament for treatment of Alzheimer's disease” (KEMPHYS LTD., priority 2013, dated 2018)
